Here are results for five compounds from patent US10757937B2, “Sulfonamides that activate ABA receptors” (The Regents of the University of California, priority 2014, dated 2020).

What all share (assay): receptor-mediated PP2C (HAB1) inhibition in vitro assay
Common to all, as to type: biochemical
Holding throughout (conditions): for remaining activity at 50 µM: 50 uM of the test compound

Assay [1] addresses T1, PYL3 (Arabidopsis thaliana, UniProt Q9SSM7).
T1 construct: 6X-His; made in house; host or cells: E. coli BL21[DE3]pLysS
T1 sequence (Q9SSM7 1-209): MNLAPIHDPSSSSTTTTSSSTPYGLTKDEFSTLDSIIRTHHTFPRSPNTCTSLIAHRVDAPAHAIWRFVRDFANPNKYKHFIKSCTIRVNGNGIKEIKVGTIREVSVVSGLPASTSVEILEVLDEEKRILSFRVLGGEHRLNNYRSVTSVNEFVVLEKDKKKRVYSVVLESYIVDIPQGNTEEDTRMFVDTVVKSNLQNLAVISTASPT
T1 sequence (Q9CAJ0 23-511 partner): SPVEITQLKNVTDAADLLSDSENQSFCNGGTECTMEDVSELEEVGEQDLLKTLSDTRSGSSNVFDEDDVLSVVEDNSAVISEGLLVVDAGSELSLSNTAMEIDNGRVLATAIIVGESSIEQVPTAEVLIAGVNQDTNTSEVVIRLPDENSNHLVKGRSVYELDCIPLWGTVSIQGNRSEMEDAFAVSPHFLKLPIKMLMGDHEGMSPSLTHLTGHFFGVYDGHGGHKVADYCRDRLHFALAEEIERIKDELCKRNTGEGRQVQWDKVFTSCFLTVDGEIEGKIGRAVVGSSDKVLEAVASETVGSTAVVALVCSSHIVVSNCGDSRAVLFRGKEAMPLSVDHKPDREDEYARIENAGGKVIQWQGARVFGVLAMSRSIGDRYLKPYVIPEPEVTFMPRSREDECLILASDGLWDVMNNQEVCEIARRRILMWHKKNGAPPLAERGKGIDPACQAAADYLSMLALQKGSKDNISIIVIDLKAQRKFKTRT
The essentials:
(§1)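 His-tagged receptors (MBP fusion for PYL11) at 2:1 ratio to 50 nM GST-HAB1 in 100 mM Tris-OAc pH 7.9, 100 mM NaCl, 1 mM MnCl2; 4-methylumbelliferyl-phosphate fluorogenic substrate. Compounds at 50 uM (ABA 10 uM); IC50 from dose curves for selected compounds.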

In assay [2] the target is T2, PYL9 (Arabidopsis thaliana, UniProt Q84MC7).
T2 construct: 6X-His; made in house; host or cells: E. coli BL21[DE3]pLysS
T2 sequence (Q84MC7 1-187): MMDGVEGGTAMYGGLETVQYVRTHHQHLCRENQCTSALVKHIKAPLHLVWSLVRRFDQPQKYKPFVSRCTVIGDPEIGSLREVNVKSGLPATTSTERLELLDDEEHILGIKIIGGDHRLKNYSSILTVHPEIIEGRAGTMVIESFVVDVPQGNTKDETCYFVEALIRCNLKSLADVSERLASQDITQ
T2 sequence (Q9CAJ0 23-511 partner): T1 sequence (Q9CAJ0 23-511 partner)
An outline of the steps:
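Fluorogenic readout: 4-methylumbelliferyl-phosphate hydrolysis by 50 nM GST-HAB1 plus 2:1 His-receptor; Tris-OAc pH 7.9, NaCl, 1 mM MnCl2, β-ME. Compounds at 25 μM or 50 uM single dose; IC50 from dose curves for selected compounds.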

Assay [3] deals with T3, PYL5 (Arabidopsis thaliana, UniProt Q9FLB1).
T3 construct: 6X-His; made in house; host or cells: E. coli BL21[DE3]pLysS
T3 sequence (Q9FLB1 1-203): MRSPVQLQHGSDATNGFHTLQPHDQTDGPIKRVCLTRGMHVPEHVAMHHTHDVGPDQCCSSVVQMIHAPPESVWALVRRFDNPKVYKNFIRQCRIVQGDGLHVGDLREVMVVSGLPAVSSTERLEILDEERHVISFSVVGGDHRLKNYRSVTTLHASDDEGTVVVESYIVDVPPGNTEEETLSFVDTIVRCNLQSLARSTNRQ
T3 sequence (Q9CAJ0 23-511 partner): T1 sequence (Q9CAJ0 23-511 partner)
An outline of the steps:
(§2)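 Compounds, tested at 25 μM or 50 uM with ABA at 10 uM, were incubated with recombinant receptor and 50 nM GST-HAB1 (2:1 ratio) in MnCl2-containing Tris-OAc buffer, pH 7.9. Phosphatase activity was followed by 4-methylumbelliferyl-phosphate fluorescence.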

In assay [4] the target is T4, PYL2 (Arabidopsis thaliana, UniProt O80992).
T4 construct: 6X-His; made in house; host or cells: E. coli BL21[DE3]pLysS
T4 sequence (O80992 1-190): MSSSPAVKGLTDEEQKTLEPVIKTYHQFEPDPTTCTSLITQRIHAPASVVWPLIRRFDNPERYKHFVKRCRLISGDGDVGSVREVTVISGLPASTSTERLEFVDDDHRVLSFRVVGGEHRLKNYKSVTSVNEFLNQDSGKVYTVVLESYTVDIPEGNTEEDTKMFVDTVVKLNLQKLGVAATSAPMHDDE
T4 sequence (Q9CAJ0 23-511 partner): T1 sequence (Q9CAJ0 23-511 partner)
An outline of the steps:
as §1

The target of assay [5] is T5, PYL10 (Arabidopsis thaliana, UniProt Q8H1R0).
T5 construct: 6X-His; made in house; host or cells: E. coli BL21[DE3]pLysS
T5 sequence (Q8H1R0 1-183): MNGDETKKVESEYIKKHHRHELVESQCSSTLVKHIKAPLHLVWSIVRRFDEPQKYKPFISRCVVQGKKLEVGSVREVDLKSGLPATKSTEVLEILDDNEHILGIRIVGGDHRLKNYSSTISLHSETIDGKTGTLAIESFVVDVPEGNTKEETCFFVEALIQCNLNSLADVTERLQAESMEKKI
T5 sequence (Q9CAJ0 23-511 partner): T1 sequence (Q9CAJ0 23-511 partner)
An outline of the steps:
as §1

The target of assay [6] is T6, PYL11 (Arabidopsis thaliana, UniProt Q9FJ50).
T6 construct: made in house; host or cells: E. coli BL21[DE3]pLysS
T6 sequence (Q9FJ50 1-161): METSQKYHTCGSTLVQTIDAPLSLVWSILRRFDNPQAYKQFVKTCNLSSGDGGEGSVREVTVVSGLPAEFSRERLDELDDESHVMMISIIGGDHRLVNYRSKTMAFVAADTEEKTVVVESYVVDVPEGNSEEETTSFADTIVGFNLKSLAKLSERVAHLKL
T6 sequence (Q9CAJ0 23-511 partner): T1 sequence (Q9CAJ0 23-511 partner)
The essentials:
as §2

[7] abbreviates: Table XII-B, calculated from dose curves, read-out: PP2C Activity (IC50 in uM) PYL3.
Setting [8] is: Table XII-B, calculated from dose curves, read-out: PP2C Activity (IC50 in uM) PYL9.
Where [9] appears, read: Table XII-B, calculated from dose curves, read-out: PP2C Activity (IC50 in uM) PYL5.
Where [10] appears, read: Table XII-B, calculated from dose curves, read-out: PP2C Activity (IC50 in uM) PYL2.
[11] abbreviates: Table XII-B, calculated from dose curves, read-out: PP2C Activity (IC50 in uM) PYL10.
The mark [12] stands for this setting: Table XII-B, calculated from dose curves, read-out: PP2C Activity (IC50 in uM) PYL11.
Where [13] appears, read: compound at 25 μM, control without agonist = 100%.

SMILES strings stand for the structures. Where two headings read alike, the source gives them in different places. A value given as a limit tells only on which side of the number the result lay.

Turning to `N#Cc1ccc(CS(=O)(=O)NC(=O)C(c2ccccc2)c2ccccc2)cc1` [Compound 71, N-[(4-Cyanophenyl)methanesulfonyl]-2,2-diphenylacetamide], the remaining activity at 50 µM in assay [1] was 102%; in assay [2], 81.8%; in assay [3], 102%; in assay [4], 102%; in assay [5] it was 86.5%; in assay [6], 43.2%. The IC50 in assay [1] (setting [7]) is above 50 µM; in assay [2] (setting [8]), above 50 µM; in assay [3] (setting [9]), above 50 µM; in assay [4] (setting [10]), above 50 µM; in assay [5] (setting [11]), above 50 µM; in assay [6] (setting [12]) it was 25 µM.

For the compound `CCC(CC)(C(=O)NS(=O)(=O)Cc1ccc([N+](=O)[O-])cc1)c1ccccc1` [Compound 19], the IC50 in assay [1] (Table VII, read-out: PP2C Dose Curves PYL3 (IC50)) is above 50 µM; in assay [2] (Table VII, read-out: PP2C Dose Curves PYL9 (IC50)), 3.9 µM; in assay [3] (Table VII, read-out: PP2C Dose Curves PYL5 (IC50)) it was above 50 µM; in assay [4] (Table VII, read-out: PP2C Dose Curves PYL2 (IC50)), above 50 µM; in assay [5] (Table VII, read-out: PP2C Dose Curves PYL10 (IC50)), 50.8 µM; in assay [6] (Table VII, read-out: PP2C Dose Curves PYL11 (IC50)), 2.44 µM. The remaining activity at 25 µM turned out to be 15% in assay [2] (setting [13]) and 85% in assay [3] (setting [13]).

`N#Cc1ccc(CS(=O)(=O)NC(=O)C2(c3cccs3)CCCCC2)cc1` [Compound 75, N-[(4-Cyanophenyl)methanesulfonyl]-1-(thiophen-2-yl)cyclohexane-1-carboxamide]: the remaining activity at 50 µM in assay [1] was 95.4%; in assay [2] it was 6.9%; in assay [3], 81.8%; in assay [4] it was 89.5%; in assay [5], 27%; in assay [6], 9.8%. Further, the IC50 in assay [1] (setting [7]) was above 50 µM; in assay [2] (setting [8]) it was 0.083 µM; in assay [3] (setting [9]), above 50 µM; in assay [4] (setting [10]), above 50 µM; in assay [5] (setting [11]) it was 0.38 µM; in assay [6] (setting [12]), 0.39 µM.

With `CC(C)COC(=O)NS(=O)(=O)Cc1ccc(C#N)cc1` [Compound 65, 2-Methylpropyl N-[(4-cyanophenyl)methanesulfonyl]carbamate], the remaining activity at 50 µM in assay [1] turned out to be 92.9%; in assay [2], 18.6%; in assay [3] it was 23.6%; in assay [4], 95.2%; in assay [5], 39.2%; in assay [6], 42.1%. The 50% inhibitory concentration (IC50) in assay [1] (setting [7]) was above 50 µM; in assay [2] (setting [8]), 6.5 µM; in assay [3] (setting [9]), 14.2 µM; in assay [4] (setting [10]) it was above 50 µM; in assay [5] (setting [11]), 19.2 µM.

As for `N#Cc1ccc(CS(=O)(=O)NC(=O)C2(c3ccsc3)CCCCC2)cc1Br` [Compound 106, N-[(4-Cyano-3-bromophenyl)methanesulfonyl]-1-(thiophen-3-yl)cyclohexane-1-carboxamide], the remaining activity at 50 µM is 96.9% in assay [1]; 5.4% in assay [2]; 11.9% in assay [3]; 29.6% in assay [4]; 22.5% in assay [5]; 7.8% in assay [6]. Further, the concentration for half-maximal inhibition (IC50) in assay [1] (setting [7]) was above 50 µM; in assay [2] (setting [8]), 0.014 µM; in assay [3] (setting [9]), 7.26 µM; in assay [4] (setting [10]) it was 33 µM; in assay [5] (setting [11]) it was 0.022 µM; in assay [6] (setting [12]), 0.065 µM.
